From article PMC11500415, “Chemical inhibition of stomatal differentiation by perturbation of the master-regulatory bHLH heterodimer via an ACT-Like domain” (Nature Communications, 2024)

Legend:
Assay in all cases: ITC direct binding
Parameters in all cases: species or system A. thaliana
SPCH = target: T1, SPCH (Arabidopsis thaliana, UniProt Q700C7)
T1 construct: ΔNSPCH (98-364); made in house; host or cells: E. coli BL21

FAMA = target: T2, FAMA (Arabidopsis thaliana, UniProt Q56YJ8)
T2 construct: ΔNFAMA (190-414); made in house; host or cells: E. coli BL21
T2 sequence (Q56YJ8 190-414): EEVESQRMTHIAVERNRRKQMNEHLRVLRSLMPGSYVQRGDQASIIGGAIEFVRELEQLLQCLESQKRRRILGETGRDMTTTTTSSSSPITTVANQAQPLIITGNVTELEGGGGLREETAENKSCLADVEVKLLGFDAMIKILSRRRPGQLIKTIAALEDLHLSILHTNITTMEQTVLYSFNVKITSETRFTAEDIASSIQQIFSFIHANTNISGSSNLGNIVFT

MUTE_ACTLE162A_E163A = target: T3, MUTE_ACTLE162A_E163A (Arabidopsis thaliana, UniProt Q9M8K6, E162A/E163A)
T3 construct: MUTE-ACTL (114-202); made in house; host or cells: E. coli BL21
T3 sequence (Q9M8K6 114-202 E162A/E163A): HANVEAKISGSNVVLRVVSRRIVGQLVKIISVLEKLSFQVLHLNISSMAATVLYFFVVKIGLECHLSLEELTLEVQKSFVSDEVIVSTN

T1 sequence (Q700C7 98-364): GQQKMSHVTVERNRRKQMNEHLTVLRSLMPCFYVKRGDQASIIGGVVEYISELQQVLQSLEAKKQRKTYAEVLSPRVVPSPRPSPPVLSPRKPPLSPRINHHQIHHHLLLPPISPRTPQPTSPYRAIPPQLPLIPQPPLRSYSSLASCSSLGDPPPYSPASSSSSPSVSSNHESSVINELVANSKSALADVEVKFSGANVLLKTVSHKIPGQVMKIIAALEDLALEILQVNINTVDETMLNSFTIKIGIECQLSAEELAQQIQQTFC

O=C1C(c2ccccc2)=NC(NS(=O)(=O)c2ccccc2)(c2ccccc2)N1S(=O)(=O)c1ccccc1 (stereo not shown) [Stomidazolone]
-T△S (SPCH): 3.6 ± 0.2 | Kd (SPCH): 79.6 ± 3.6 µM | △G (SPCH): -2.6 ± 0.2 | △H (SPCH): -6.2 ± 0.5 | -T△S (FAMA): 2.4 ± 0.3 | Kd (FAMA): 80.4 ± 4.1 µM | △G (FAMA): -1.8 ± 0.2 | △H (FAMA): -4.2 ± 0.2 | -T△S (MUTE_ACTLE162A_E163A; MUTE_ACTL E162A_E163A): 3.1 ± 0.3 | Kd (MUTE_ACTLE162A_E163A; MUTE_ACTL E162A_E163A): 85.5 ± 5.5 µM | △G (MUTE_ACTLE162A_E163A; MUTE_ACTL E162A_E163A): -4.5 ± 0.2 | △H (MUTE_ACTLE162A_E163A; MUTE_ACTL E162A_E163A): -7.6 ± 0.5 | increase in the Kd value versus wild-type MUTE (MUTE_ACTLE162A_E163A; authors' response to reviewers, data of the original Fig. S3): ~5 fold
